Experimental data published in patent publication US11098040B2, “Compounds and methods of use” (Ferro Therapeutics, Inc., priority 2018, dated 2021).

Tests used:
[1] = Whole blood stability, human; assay type: in vitro ADME
Excerpt: (§1) The results of the assay on stability in blood and IC50 values for pancreatic cancer cell line KP4 are given below in Table 24.

[2] = Whole blood stability, mouse; assay type: in vitro ADME
Excerpt: as §1

KP4 = assay: Cell viability assay (CellTiter Glo), pancreatic ductal adenocarcinoma KP4; assay type: cell-based, human; details: Homo sapiens, KP-4, 96 h, pancreatic cancer cell line KP4, 96 hours, CellTiter Glo; read-out: IC50 μM KP4
Method in brief: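 KP4 cells seeded at 1,000–10,000 per well, treated 96 h with 9-point 3-fold dilutions from 30 μM top (4.6 nM–30 μM, duplicates; ≤0.25% DMSO). Viability by CellTiter Glo luminescence; % inhibition relative to DMSO-only wells, giving IC50, relative IC50 or % top inhibition.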

SMILES	Whole Blood Stability % Remaining at 37° C. Human ([1]; 0 min)	Whole Blood Stability % Remaining at 37° C. Human ([1]; 30 min)	Whole Blood Stability % Remaining at 37° C. Human ([1]; 60 min)	Whole Blood Stability % Remaining at 37° C. Mouse ([2]; 0 min)	Whole Blood Stability % Remaining at 37° C. Mouse ([2]; 30 min)	Whole Blood Stability % Remaining at 37° C. Mouse ([2]; 60 min)	IC50 (KP4)
CN(C)C(=O)[C@H]1Cc2c([nH]c3ccccc23)[C@H](c2ccc([Si](C)(C)C)cc2)N1C(=O)CCl [Compound 67]	100.0%	56.8%	37.3%	100.0%	38.7%	13.3%	0.01 to 0.1 µM
CN(C)C(=O)c1ccc([C@H]2c3[nH]c4ccccc4c3C[C@H](C(N)=O)N2C(=O)CCl)cc1 [Compound 58]	100.0%	64.4%	40.5%	100.0%	89.9%	67.0%	> 1 µM
CN(C)C(=O)[C@H]1Cc2c([nH]c3ccccc23)[C@H](c2ccc(C(=O)N3CCC(O)CC3)cc2)N1C(=O)CCl [Compound 45]	100.0%	71.4%	56.4%	100.0%	91.2%	81.5%	> 1 µM
COC(=O)[C@H]1Cc2c([nH]c3ccccc23)[C@H](c2ccc(C(=O)OCC3CC3)cc2)N1C(=O)CCl [Compound 75]	100.0%	68.1%	41.5%	100.0%	1.8%	0.9%	< 0.01 µM
COC(=O)[C@H]1Cc2c([nH]c3ccccc23)[C@H](c2ccc(C(=O)N3CCNCC3)cc2)N1C(=O)CCl [Compound 31]	100.0%	49.4%	32.6%	100.0%	90.0%	75.5%	0.1 to 0.5 µM
CN(C)C(=O)[C@H]1Cc2c([nH]c3ccccc23)[C@H](c2ccc(S(=O)(=O)C3CCCC3)cc2)N1C(=O)CCl [Compound 69]	100.0%	48.4%	18.3%	100.0%	63.8%	29.3%	0.01 to 0.1 µM
COC(=O)[C@H]1Cc2c([nH]c3ccccc23)[C@H](c2ccc(C(=O)NCCN)cc2)N1C(=O)CCl [Compound 15]	100.0%	72.7%	66.8%	100.0%	83.0%	50.2%	0.1 to 0.5 µM
CN(C)C(=O)[C@H]1Cc2c([nH]c3ccccc23)[C@H](c2ccc(C(=O)OC(C)(C)C)cc2)N1C(=O)CCl [Compound 21]	100.0%	49.7%	24.3%	100.0%	14.0%	3.2%	0.01 to 0.1 µM

Other lines, results leading:

Whole Blood Stability % Remaining at 37° C. Human ([1]; 0 min)	Whole Blood Stability % Remaining at 37° C. Human ([1]; 30 min)	Whole Blood Stability % Remaining at 37° C. Human ([1]; 60 min)	Whole Blood Stability % Remaining at 37° C. Mouse ([2]; 0 min)	Whole Blood Stability % Remaining at 37° C. Mouse ([2]; 30 min)	Whole Blood Stability % Remaining at 37° C. Mouse ([2]; 60 min)	IC50 (KP4)	SMILES
100.0%	68.3%	51.7%	100.0%	127.4%	111.0%	< 0.01 µM	C[C@H]1Cc2c([nH]c3ccccc23)[C@H](c2ccc(C3CCCCC3)cc2)N1C(=O)CCl [Compound 110]
100.0%	47.5%	14.8%	100.0%	0.0%	0.0%	0.5 to 1 µM	COC(=O)c1ccc([C@@H]2c3[nH]c4ccccc4c3C[C@H](C)N2C(=O)CCl)cc1 [Example 77a]
100.0%	56.4%	27.0%	100.0%	0.0%	0.0%	< 0.01 µM	COC(=O)c1ccc([C@H]2c3[nH]c4ccc(Br)cc4c3C[C@H](C(=O)OC)N2C(=O)CCl)cc1 [Compound 88]
100.0%	60.8%	42.5%	100.0%	0.2%	0.2%	< 0.01 µM	COC(=O)c1ccc([C@H]2c3[nH]c4ccccc4c3C[C@H](C(=O)OC)N2C(=O)CCl)cc1 [K601 (RSL3), reference compound]
100.0%	60.9%	49.6%	100.0%	72.3%	58.6%	0.01 to 0.1 µM	COC(=O)[C@H]1Cc2c([nH]c3ccccc23)[C@H](c2ccc(NC(C)=O)cc2)N1C(=O)CCl [Compound 80]
100.0%	78.3%	49.6%	100.0%	0.0%	0.0%	< 0.01 µM	COC(=O)[C@H]1Cc2c([nH]c3ccccc23)[C@H](c2ccc(C(=O)OCC3CCCC3)cc2)N1C(=O)CCl [Compound 86]
100.0%	79.2%	62.0%	100.0%	82.6%	67.1%	0.1 to 0.5 µM	C[C@H]1Cc2c([nH]c3ccccc23)[C@H](c2ccc(NCC3CC3)cc2)N1C(=O)CCl [Compound 116]
100.0%	63.2%	32.2%	100.0%	0.0%	0.0%	< 0.01 µM	COC(=O)[C@H]1Cc2c([nH]c3ccc(Br)cc23)[C@H](c2ccc(C(=O)OCC3CC3)cc2)N1C(=O)CCl [Compound 87]
